Entries after “also recorded” stand apart in the source; their conditions may differ.
Tests used:
ΔF508-CFTR [1] = target: T1, ΔF508-CFTR (Homo sapiens, UniProt P13569, DEL508-508); assay: Single-channel kinetics (dwell-time analysis), cell-attached patches; format: cell-based; design: expressed in transfected cells; host or cells: NIH/3T3 cells, stably transfected (NIH/3T3-ΔF508, gift of Dr. Richard Mulligan)
Method: FIGS. 3A and B show recordings of the potentiation of wild-type (wt) and ΔF508-CFTR channel activity by genistein. Channels in cell-attached patches from NIH/3T3-CFTR (FIG. 3A) and NIH/3T3-ΔF508cells (FIG. 3B), were stimulated as indicated with 10 μM forskolin and 50μ genestein.
(§1) Electrophysiology: CFTR channel currents were recorded at room temperature (~22° C.) with a patch-clamp amplifier (EPC-9, Heka Electronic), filtered at 100 Hz with a built-in three-pole Bessel filter, and stored on videotapes. Data were subsequently refiltered at 25 Hz with an eight-pole Bessel filter (Frequency Device, Havervill, Mass.) and captured onto a hard disk at a sampling rate of 50 Hz. […] Patch-clamp electrodes were made from Corning 7052 glass capillaries (Warner Instrument, Hammed, Conn.). The pipette resistance was usually 3-5 M.OMEGA., and the seal resistance was >20 G.OMEGA.. The pipette solution contained (in mM) 140 N-methyl-D-glucamine chloride (NMDG-C1), 2 MgCl2, 5Ca Cl2, and 10 HEPES (pH 7.4 with NMDG). The superfusion solution contained (in mM) 150 […], 2 MgCl2, 1 EGTA, 5 glucose, and 5 HEPES (pH 7.4 with NaOH). In excised inside-out patch experiments, the bath solution contained (in mM) 130 MNDG-Cl, 10 EGTA, 10 HEPES, 20 tetraethylammonium chloride, 8 Tris, and 2 MgCl2 (pH 7.4 with NMDG). Pipette potential was held at 50 mV relative to the bath. Downward deflections represent channel opening.
Statistics: Mean currents and variance were estimated with Igor (Wavemetrics, Lake Oswego, Oreg.). Parameters for mean current-variance relationships and dose-response curves were obtained from least-square fitting with Sigmaplot (Jandel, San Rafael, Calif.). Po was calculated from patches containing a single channel by dividing the […]. Dwell-time analysis was described previously [Baukrowitz et al., 1994]. Calculated values are presented as means±SE. Comparisons among data were made using the Student's t-test with P<0.05 considered significant.
To determine how genistein increases Po, the effects of genistein on single-channel kinetics were examined in cell-attached patches using dwell-time analysis. […] Both traces were recorded in the presence of 10 μM forskolin; 50 μM genistein was added prior to the start of the lower trace. […] The mean open times for ΔF508-CFTR were also determined. However, since cell-attached patches containing a single ΔF508-CFTR channel were not observed, a direct assessment of the closed times for ΔF508-CFTR cannot be made. Dwell-time analysis of pooled open times were performed on 14 patches where individual openings of ΔF508-CFTR could be clearly identified.
Table 1. Values are means±SE.

CFTR = assay: In vivo phosphorylation of CFTR (32P) versus I- efflux, NIH/3T3-CFTR cells; format: cell-based; conditions: 50 μM genistein; 0-10 μM forskolin; all phosphorylation levels
Method: I^- efflux: I^- efflux was measured as described previously [Reenstra et al., 1996]. Briefly, cells were incubated for 30 minutes with 37° C. I^- efflux buffer [(in mM) 141 NaCl, 4 KCl, 1 KH2 PO4, 0.9 MgCl2, 1.7 CaCl2. 10 N-2hydroxyethylpiperazine-N'-2-ethanesulfonic acid (HEPES), 25 glucose pH 7.4] containing 5 μCi/ml carrier-free ^125 I^- (sodium salt). Extracellular ^125 I^- was removed by washing four times with efflux buffer, and the rate of loss of intracellular ^125 I^- was determined by replacing the bathing solution with 37° C. efflux buffer every 60 seconds for 12 minutes. Time-dependent rates of ^125 I^- efflux are calculated from R=ln(^125 I^-t1 /^125 I^-t2)/(t1-t2), where ^125 I^-t is the intracellular ^125 I^- at time t and t1 and t2 are successive time points. Dose-response curves were obtained from peak rates of 125I^- efflux by nonlinear least squares fitting to R=[Ro +Rmx ·([fsk]/K1/2)]/[1+([fsk]/K1/2)], where Ro and Rmx are the rates of ^125 I efflux at zero and infinite concentration of forskolin (fsk), and K1/2 is the concentration of agonist that gives a half-maximal change.

ΔF508-CFTR [2] = target: T1, ΔF508-CFTR; assay: Other protein tyrosine kinase inhibitors, activation of ΔF508-CFTR; format: cell-based; design: expressed in transfected cells; host or cells: NIH/3T3 cells, stably transfected (NIH/3T3-ΔF508, gift of Dr. Richard Mulligan)
histidine kinase = conditions: cited from earlier work
wt-CFTR [3] = target: T2, wt-CFTR (Homo sapiens, UniProt P13569)
T2 sequence (P13569 whole entry): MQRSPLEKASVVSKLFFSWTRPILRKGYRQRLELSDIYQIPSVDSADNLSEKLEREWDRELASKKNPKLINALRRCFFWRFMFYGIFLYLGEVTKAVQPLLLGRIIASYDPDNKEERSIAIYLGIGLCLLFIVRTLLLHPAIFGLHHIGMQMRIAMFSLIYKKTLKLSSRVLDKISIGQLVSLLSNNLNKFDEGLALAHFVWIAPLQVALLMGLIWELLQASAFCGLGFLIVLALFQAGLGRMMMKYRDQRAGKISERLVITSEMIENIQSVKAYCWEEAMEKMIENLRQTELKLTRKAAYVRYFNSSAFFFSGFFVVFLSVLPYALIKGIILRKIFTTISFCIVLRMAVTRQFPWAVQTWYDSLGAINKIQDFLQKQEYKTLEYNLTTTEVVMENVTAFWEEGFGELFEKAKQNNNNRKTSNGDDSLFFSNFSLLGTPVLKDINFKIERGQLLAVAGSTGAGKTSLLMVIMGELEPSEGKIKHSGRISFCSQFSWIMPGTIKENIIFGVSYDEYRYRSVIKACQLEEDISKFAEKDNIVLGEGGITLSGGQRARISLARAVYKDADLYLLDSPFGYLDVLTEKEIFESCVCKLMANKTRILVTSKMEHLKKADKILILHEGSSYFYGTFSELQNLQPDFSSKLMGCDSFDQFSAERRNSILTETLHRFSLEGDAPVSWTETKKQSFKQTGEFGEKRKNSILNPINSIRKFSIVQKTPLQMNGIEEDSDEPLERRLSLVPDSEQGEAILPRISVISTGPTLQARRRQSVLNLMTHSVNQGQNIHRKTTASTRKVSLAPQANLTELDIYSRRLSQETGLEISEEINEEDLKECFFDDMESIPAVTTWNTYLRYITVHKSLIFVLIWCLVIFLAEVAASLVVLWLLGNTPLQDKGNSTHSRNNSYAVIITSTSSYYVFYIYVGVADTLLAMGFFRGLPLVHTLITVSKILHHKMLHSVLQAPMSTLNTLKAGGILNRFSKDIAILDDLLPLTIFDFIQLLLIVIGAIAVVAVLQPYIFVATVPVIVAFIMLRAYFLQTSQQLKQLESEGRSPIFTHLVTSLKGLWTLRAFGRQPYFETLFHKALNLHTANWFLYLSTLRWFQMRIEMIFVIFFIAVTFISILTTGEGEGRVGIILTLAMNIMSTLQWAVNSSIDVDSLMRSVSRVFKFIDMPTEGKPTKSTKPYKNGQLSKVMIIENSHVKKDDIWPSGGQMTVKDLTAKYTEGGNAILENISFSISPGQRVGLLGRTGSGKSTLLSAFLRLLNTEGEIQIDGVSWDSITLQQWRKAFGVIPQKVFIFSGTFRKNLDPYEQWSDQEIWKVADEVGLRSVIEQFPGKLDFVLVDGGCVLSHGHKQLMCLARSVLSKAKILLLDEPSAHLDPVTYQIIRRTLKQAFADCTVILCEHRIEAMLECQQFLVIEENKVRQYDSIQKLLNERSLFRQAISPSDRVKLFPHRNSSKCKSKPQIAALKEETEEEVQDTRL
Method: FIGS. 9A and B are recordings of the effects of genistein on CFTR gating in excised inside-out patches from NIH/3T3-CFTR or NIH/3T3-ΔF508 cells. CFTR channels were activated by 10 μM forskolin +20 nM calyculin A before excision into an inside-out configuration. Presence of calyculin A helps to slow channel dephosphorylation. (A): continuous 14.5 minute recording of a patch containing wt-CFTR. Expanded traces are 22 seconds in length. ATP (500 μM) with or without 20 μM genistein was present as indicated. (B): 2 traces of 44 seconds in length of an excised inside-out patch with CFTR-ΔF508.
as §1
Channels were first activated in cell-attached patches with forskolin plus calyculin A, a membrane-permeant phosphatase inhibitor [Suganuma et al., 1991]. Patches were then excised into an inside-out configuration.

wt-CFTR [4] = target: T2, wt-CFTR; design: expressed in transfected cells; host or cells: pooled: Calu-3 (endogenous, n=2); conditions: cited from earlier work
wt-CFTR [5] = assay: Patch clamp, cell-attached patches, Calu-3 cells; format: cell-based, human; conditions: 50 μM genistein on forskolin, n=15
From the text: Downward deflections represent channel opening.

[6] = test system: cAMP levels or PKA activity; conditions: cited from earlier work
[7] = Table 1, 10 μM forskolin + 50 μM genistein

T1 sequence (P13569 with tags, fused parts or gaps DEL508-508): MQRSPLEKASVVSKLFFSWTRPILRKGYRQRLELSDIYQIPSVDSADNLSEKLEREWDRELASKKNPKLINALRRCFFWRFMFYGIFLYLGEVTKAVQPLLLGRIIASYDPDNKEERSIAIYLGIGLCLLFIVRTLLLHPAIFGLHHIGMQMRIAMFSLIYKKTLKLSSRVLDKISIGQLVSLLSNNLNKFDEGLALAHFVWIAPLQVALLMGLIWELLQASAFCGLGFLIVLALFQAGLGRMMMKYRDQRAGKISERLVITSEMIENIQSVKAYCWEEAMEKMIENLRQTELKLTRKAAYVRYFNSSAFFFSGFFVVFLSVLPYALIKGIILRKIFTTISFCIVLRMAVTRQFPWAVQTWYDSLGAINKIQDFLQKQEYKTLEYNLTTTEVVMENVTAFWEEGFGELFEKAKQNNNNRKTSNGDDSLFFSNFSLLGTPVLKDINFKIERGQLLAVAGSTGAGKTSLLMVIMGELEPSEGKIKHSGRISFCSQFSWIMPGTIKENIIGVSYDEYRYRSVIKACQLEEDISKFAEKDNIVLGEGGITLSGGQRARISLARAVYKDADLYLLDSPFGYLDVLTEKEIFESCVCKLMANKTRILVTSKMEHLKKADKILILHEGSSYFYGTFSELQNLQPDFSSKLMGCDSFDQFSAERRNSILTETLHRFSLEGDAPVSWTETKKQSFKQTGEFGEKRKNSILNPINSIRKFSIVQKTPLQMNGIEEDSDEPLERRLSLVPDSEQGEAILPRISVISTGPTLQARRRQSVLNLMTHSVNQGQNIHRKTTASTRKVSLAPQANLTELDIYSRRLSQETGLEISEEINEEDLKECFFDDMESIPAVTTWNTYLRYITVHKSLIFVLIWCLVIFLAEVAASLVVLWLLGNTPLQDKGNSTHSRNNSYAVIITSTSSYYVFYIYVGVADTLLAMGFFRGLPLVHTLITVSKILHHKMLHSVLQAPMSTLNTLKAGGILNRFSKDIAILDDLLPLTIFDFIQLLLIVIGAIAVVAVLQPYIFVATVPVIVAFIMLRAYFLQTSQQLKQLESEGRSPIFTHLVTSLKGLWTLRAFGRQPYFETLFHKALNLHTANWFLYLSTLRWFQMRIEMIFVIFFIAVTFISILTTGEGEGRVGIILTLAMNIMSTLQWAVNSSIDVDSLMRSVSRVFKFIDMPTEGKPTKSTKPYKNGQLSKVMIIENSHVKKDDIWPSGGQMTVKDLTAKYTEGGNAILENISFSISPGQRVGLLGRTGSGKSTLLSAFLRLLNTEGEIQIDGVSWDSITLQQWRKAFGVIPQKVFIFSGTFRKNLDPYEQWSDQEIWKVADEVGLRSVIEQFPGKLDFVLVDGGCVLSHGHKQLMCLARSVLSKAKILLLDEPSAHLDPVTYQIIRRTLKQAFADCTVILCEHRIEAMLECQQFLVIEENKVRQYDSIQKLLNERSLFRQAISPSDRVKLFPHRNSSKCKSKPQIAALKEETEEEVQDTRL

For `C=C[C@@]1(C)CC(=O)[C@]2(O)[C@@]3(C)[C@@H](O)CCC(C)(C)[C@@H]3[C@H](O)[C@H](OC(C)=O)[C@@]2(C)O1` [forskolin], the “average long closing time” value (ΔF508-CFTR [1]; 10 μM forskolin alone, at least 5 channels in patch) was 6.1 s, the “TO2 (so in the source), estimated” value (ΔF508-CFTR [1]; 10 μM forskolin, from observed closed time and minimal number of channels) was “about 30 seconds” and the “TO1 (mean open time)” value (ΔF508-CFTR [1]; Table 1, 10 μM forskolin) was 0.30 ± 0.11. For the same compound, the “TO2 (long mean open time)” value (ΔF508-CFTR [1]; Table 1, 10 μM forskolin) was 0.92 ± 0.12 and the “TC2 (long mean closed time), estimation” value (ΔF508-CFTR [1]; Table 1, 10 μM forskolin, estimated from observed closed time and minimum number of channels) was over 30.
In the case of `O=c1c(-c2ccc(O)cc2)coc2cc(O)cc(O)c12` [Genistein, 4',5,7-trihydroxyisoflavone], the “channel activity at given CFTR phosphorylation level” value (CFTR) is given as “channel activity was greater in the presence of genistein”, the “ΔF508-CFTR stimulation activity among protein tyrosine kinase inhibitors” value (ΔF508-CFTR [2]) is given as “is the only protein tyrosine kinase inhibitor that has such an effect” and the “inhibition of histidine kinase” value (histidine kinase) is given as “inhibits”. The “increase of ATP-induced currents by genistein” value (wt-CFTR [3]; 50 μM genistein, n=8) was 2.2±0.1 fold, the “opening of channels in absence of ATP” value (wt-CFTR [3]; 50 μM genistein, no ATP) was “did not open wt-CFTR channels in the absence of ATP” and the channel open time (wt-CFTR [3]; ATP with genistein, stated for both wt- and ΔF508-CFTR) was 2,033±173 milliseconds. For the same compound, the “increase in Po by genistein” value (wt-CFTR [3]; excised patches, ATP) was “twofold increase in the Po”, the “basal wt-CFTR activity” value (wt-CFTR [4]) was “stimulates basal wt-CFTR activity” and the “channel activation in cells lacking basal CFTR activity” value (wt-CFTR [4]) was “does not appear to activate the channel in cells that lack a basal CFTR activity”. For the same compound, the “deactivation of wt-CFTR currents after removal of cAMP-dependent stimulation” value (wt-CFTR [4]) was “prevents deactivation of wt-CFTR channel currents”, the “potentiation of cAMP-dependent wt-CFTR activity” value (wt-CFTR [4]) was “potentiates cAMP-dependent wt-CFTR channel activity” and the “steady-state phosphorylation of wt-CFTR” value (wt-CFTR [4]) was “increases the steady-state phosphorylation level of wt-CFTR”. The “activation of wt-CFTR chloride channels” value (wt-CFTR [4]; variety of cells) was “activates wt-CFTR chloride channels”, the “average increase in mean-current amplitude by genistein” value (wt-CFTR [5]) was 3.1±0.3 fold and the “effect on cAMP levels or PKA activity” value [6] was “does not increase cAMP levels or PKA activity; also recorded: does not alter cellular cAMP levels or PKA activity”. The “increase of TO2 of forskolin-activated ΔF508-CFTR current by genistein” value (ΔF508-CFTR [1]; 10 μM forskolin) was “two-to threefold”, the “TO1 (mean open time)” value (ΔF508-CFTR [1]; [7]) was 0.31 ± 0.17 and the “TO2 (long mean open time)” value (ΔF508-CFTR [1]; [7]) was 2.63 ± 0.37.

From patent publication US5948814A, “Genistein for the treatment of cystic fibrosis” (priority 1998, dated 1999)
